Data as given in patent publication US4187245A, “Hydroxypropylene-amino-phosphonic-sulfonic acids” (Petrolite Corporation, priority 1978, dated 1980).
Counter-ions that a name gives are not always drawn.

Legend:
[1] = Calcium Scale Inhibition Test; conditions: 180° F., samples at 2 and 4 hours
Experimental: Calcium Scale Inhibition Test
The procedure utilized to determine the effectiveness of scale inhibitors in regard to calcium scale is as follows:
Several 50 ml. samples of a 0.04 sodium bicarbonate solution are placed in 100 ml. bottles. To these solutions is added the inhibitor in various known concentrations. 50 ml. samples of a 0.02 M CaCl2 solution are then added.
A total hardness determination is then made on the 50--50 mixture utilizing the well known Schwarzenbach titration. The samples are placed in a water bath and heated at 180° F. 10 ml. samples are taken from each bottle at 2 and 4 hour periods. These samples are filtered through millipore filters and the total hardness of the filtrates are determined by titration. [formula]

[2] = prior-art background; cited from earlier work

SMILES	% Inhibition (Calcium Scale Inhibition) ([1]; 50 ppm)	% Inhibition (Calcium Scale Inhibition) ([1]; 25 ppm)	further results
NCCNCC(O)CS(=O)(=O)O (stereo not drawn) [Example 7]	50%	–	–
NCCNCCNCC(O)CS(=O)(=O)O (stereo not drawn) [Example 9]	45%	–	–
O=S(=O)(O)CC(O)CNCCNCCNCC(O)CS(=O)(=O)O (stereo not drawn) [Example 10]	–	45%	–
O=P(O)(O)CN(CCN(CP(=O)(O)O)CP(=O)(O)O)CC(O)CS(=O)(=O)O (stereo not drawn) [Example 16]	–	100%	% Inhibition (Calcium Scale Inhibition) ([1]; 10 ppm): 91%
O=S(=O)(O)CC(O)CNCCNCC(O)CS(=O)(=O)O (stereo not drawn) [Example 8]	45%	–	–
O=P(O)(O)CN(CCN(CC(O)CS(=O)(=O)O)CP(=O)(O)O)CCN(CC(O)CS(=O)(=O)O)CP(=O)(O)O (stereo not drawn) [Example 19]	100%	86%	–
O=P(O)(O)CN(CCN(CC(O)CS(=O)(=O)O)CP(=O)(O)O)CC(O)CS(=O)(=O)O (stereo not drawn) [Example 17]	100%	96%	% Inhibition (Calcium Scale Inhibition) ([1]; 15 ppm): 72%
O=C(O)CN(CCN(CC(=O)O)CC(=O)O)CC(=O)O [ethylenediamine tetracetic acid salts]	–	–	threshold activities [2]: no threshold activities
